This note sets out measurements from patent publication US12029682B2, “Spray ejector mechanisms and devices providing charge isolation and controllable droplet charge, and low dosage volume ophthalmic administration” (EYENOVIA, INC., priority 2012, dated 2024).

What all share (assay type): in vivo, beagle dog
For data set [1], the system named is glaucomatous beagles. The data set can be described thus: Intraocular pressure (IOP), TonoVet, in glaucomatous beagles. Conditions: including control of morning IOP spike. As for the experimental part:
(§1) One glaucomatous beagle dog (female, aged 3 years) from the University of Florida MacKay Colony of Glaucomatous Beagles was chosen for this study. The animal was rested a minimum of one week before starting the study. Prior to the commencement of the study, the animal was assigned one eye to receive 1.5 μl of 0.005% latanoprost and the contralateral eye to remain untreated as a control. The basic measurement protocol was followed at all times and performed by the same operator. PD was measured via Jameson Caliper (mm horizontally). IOP was measured using a TonoVet instrument with clean probe (iCare). IOP and PD were measured at time 0, 1, 2, 4, 7 and 18 hours daily for two days. Immediately after the time 0 measurement, the animal received 1.5 μl of 0.005% latanoprost in its assigned eye with a spray device. The contralateral eye was left untreated. The spray device was checked for accuracy before and after every use, and required a 10% delivered dose accuracy in pretreatment. Standard measurements continued throughout each day at time 1, 2, 4, 7 and 18 hours. Possible endpoints included, but were not limited to, excessive ocular irritation, ocular damage, and other illness or injury. No statistical crossover was utilized for this study.
as §1, with “study.” for “study. The animal was rested a minimum of one week before starting the study.”, “receive 3.0” for “receive 1.5”, “0 measurements,” for “0 measurement,”, “animal was administered 3.0” for “animal received 1.5”, “eye using” for “eye with”, “spray ejector” for “spray”
All animals were rested for a minimum of one week before starting the trials. IOP and pupil diameter (PD) were measured 5 times (at 0, 1, 2, 4, and 7 hours) daily for four days (study days 1-4) to establish initial baseline levels. The basic measurement protocol was followed at all times and performed by the same operator. PD was measured via Jameson Caliper (mm horizontally). IOP was measured with a TonoVet instrument with clean probe (iCare). After three rest days, one eye was randomly assigned to receive 9 μl of 0.005% latanoprost delivered via a spray ejector device, and the contralateral eye was administered traditional latanoprost from a traditional eyedropper container (26-30 μl).
On study days 5-9, IOP and PD measurements were taken at approximately 0900 h (time 0). Immediately after time 0 measurements, each animal received a once-daily dose of 9 μl of generic 0.005% latanoprost in its assigned eye via the spray ejector device. The contralateral eye received a clinical dose (one drop) of the same commercially available topical drug from a traditional eyedropper (positive control). The spray ejector device was checked for accuracy before and after every use and required a 10% delivered dose accuracy in pretreatment. Standard measurements continued throughout each day at 0, 1, 2, 4, and 7 hours. Possible endpoints included, but were not limited to, excessive ocular irritation, ocular damage, and other illness or injury. No statistical crossover was utilized for this study. […]

Data set [2] concerns glaucomatous beagles. The data set can be described thus: Ocular irritation observations in glaucomatous beagles. As for the experimental part:
Active drug delivery begins on study day eight. For five days, IOP and PD measurements are taken at 0900. Immediately after 0900 measurements (time 0), each animal receives 6 μl of generic latanoprost in its assigned eye with the ejector device, followed by a second dosing 3 minutes later of an additional 6 μl (to avoid overloading the conjunctival sac). The contralateral eye receives a clinical dose (one drop) of the same commercially-available topical drug from FDA approved container (positive control). The ejector device is checked for accuracy before and after every use (Table 1). Standard measurements continue throughout each day (at 0:30, 0:45, 1, 2, 7 hrs). Possible endpoints include, but are not limited to, excessive ocular irritation, ocular damage, or other illness and injury. […]
On study days 5-9, IOP and PD measurements were taken at approximately 0900 h (time 0). Immediately after these measurements, each animal received 6 μl of 0.03% bimatoprost in its assigned eye via the spray ejector device. The contralateral eye received a clinical dose (one drop) of the same commercially available topical drug from a traditional eyedropper (positive control). The spray ejector device was checked for accuracy before and after every use and required a 10% delivered dose accuracy in pretreatment. Standard measurements continued throughout each day at 0, 1, 2, 4, and 7 hours. Possible endpoints included, but were not limited to, excessive ocular irritation, ocular damage, and other illness or injury. No statistical crossover was utilized for this study.
Ophthalmic examinations (slit lamp with fluorescein and indirect ophthalmoscopy) were performed on the eyes of each animal prior to Study Day 1. Ocular findings were scored according to the McDonald-Shadduck Score System. Ocular findings were recorded using a standardized data collection sheet. Macroscopic observations were recorded in accordance with the Draize Scale for Scoring Ocular Lesions. Animals were assigned treatments based on basic randomization prior to study day one.
Following a 7 day rest period, the eye choice was reversed. Measurements of IOP, heart rate and pupil diameter (PD) were made at 0:15, 0:30, 0:45, 1, 2, 4, 7, and 18 hours in the primary and crossover study. A veterinary ophthalmologist evaluated each test subject before and after the study for evidence of ocular side effects.
Ophthalmic examinations (slit lamp with fluorescein and indirect ophthalmoscopy) were performed on the eyes of each animal prior to study day 1. Ocular findings were scored according to the McDonald-Shadduck score system and macroscopic observations were recorded in accordance with the Draize scale for scoring ocular lesions. Ocular findings were recorded using a standardized data collection sheet.

The test system of data set [3] is glaucomatous beagles. The data set can be described thus: Pupil diameter (PD), Jameson Caliper, in glaucomatous beagles.
The test system of data set [4] is glaucomatous beagles. The data set can be described thus: Intraocular pressure (IOP), TonoVet, in glaucomatous beagles.
The mark [5] stands for this setting: 0.0005%, 0.002%, positively charged, 3 mcl.
Setting [6] is: 9 μl of 0.004% via spray ejector device, study day 1.

Entries after “also recorded” stand apart in the source; their conditions may differ.

`CC(C)OC(=O)CCC/C=C\C[C@@H]1[C@@H](/C=C/[C@@H](O)COc2cccc(C(F)(F)F)c2)[C@H](O)C[C@@H]1O` [travoprost]: the “lowering of IOP over a 24 hour period compared with other prostaglandin agonists studied” value with glaucomatous beagles [1] was “most effective of the prostaglandin agonists studied”. For the same compound, the “excessive eye irritation or other eye issues” value in the data set with glaucomatous beagles [2] (9 μl of 0.004%, spray ejector device and micropipette) is given as “no reports of excessive eye irritation or other eye issues”. Also, in the data set on glaucomatous beagles [2] (18 μl of 0.004% via spray ejector device), the “irritation vs eyedropper-treated eyes” value was “less than that observed in the eyedropper-treated eyes”. In addition, in the data set on glaucomatous beagles [3] (setting [5]), the “decrease of pupillary diameter compared to uncharged droplets” value is listed as “less decrease of pupillary diameter”. Further, the maximum miosis in the data set with glaucomatous beagles [3] (9 μl of 0.004% via spray ejector device, at time 12 hours) came to 1.17 mm. Further, the “time of significant PD changes” value in the data set on glaucomatous beagles [3] (setting [6]) came out at 12 h. Besides, the “IOP lowering compared to uncharged droplets” value in the data set on glaucomatous beagles [4] (setting [5]) is “greater IOP lowering”; with glaucomatous beagles [4] (0.004%, positively and negatively charged) it was “greater IOP lowering”. For the same compound, in the data set with glaucomatous beagles [4] (0.004%, both treatments (18 μl spray ejector device, eyedropper)), the “IOP values vs baseline” value is reported as “much lower than baseline for a full 24 hours”. Further, in the data set with glaucomatous beagles [4] (3 microliters, 0.002% and 0.0005%, spray ejector device with controllable droplet charge), the IOP lowering result is reported as “greater IOP lowering”. Moreover, the “spray ejector device vs micropipette treatment” value with glaucomatous beagles [4] (9 μl of 0.004% each, throughout the study (p=0.7546)) is “no statistically significant differences”. In addition, the “highest average daily peak IOP” value in the data set on glaucomatous beagles [4] (9 μl of 0.004% via spray ejector device, after 5 days of treatment) is recorded as 18.83 mmHg. The “time of significant changes in IOP from baseline” value with glaucomatous beagles [4] (setting [6]) worked out at 12 h. Moreover, in the data set on glaucomatous beagles [4] (18 μl morning or evening dose via spray ejector device / traditional therapy), the “post-treatment IOP” value is listed as “below 20 mmHg”. Moreover, in the data set with glaucomatous beagles [4] (18 μl of 0.004% once daily, morning or evening, via spray ejector device vs one drop (average 26 μl)), the “effectiveness at lowering/controlling IOP vs traditional therapy” value was “as effective at lowering IOP and constricting the pupil as the traditional therapy; also recorded: as effective at controlling IOP as traditional therapy”. Moreover, the “difference in duration of IOP lowering, spray ejector device vs eyedropper” value in the data set with glaucomatous beagles [4] (18 μl of 0.004% vs one drop) is “not significant”. In the data set on glaucomatous beagles [4] (controllable droplet charge spray administration, 1xqd@hs dosing), the “duration of IOP lowering” value was “full 24 hour IOP lowering”.
